According to publication PMC9405973, “Altered Conformational Landscape upon Sensing Guanine Nucleotides in a Disease Mutant of Elongation Factor-like 1 (EFL1) GTPase” (Biomolecules, 2022):
“And” between values parts separate entries of the source, which are not always exact repeats. Equal values may be shown once.

Molecular target: T1, Efl1 R1086Q (Saccharomyces cerevisiae, UniProt P53893, R1086Q)
T1 construct: made in house; host or cells: Saccharomyces cerevisiae
Test: Isothermal titration calorimetry (ITC): binding of guanine nucleotides or Sdo1 to Efl1 R1086Q
Conditions: for Kd / -TΔSb / ΔGb / ΔHb / ΔCpb: guanine nucleotide; for ΔCpb: from ΔHb at 25–35 °C
Outline: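 ITC at 25–35 °C in 50 mM Tris-HCl pH 8.0, 150 mM NaCl, 5% glycerol, with 5 mM MgCl2 or 2 mM EDTA; 30–50 µM GTPase in cell, 2–3 mM nucleotide titrated, eight-fold Sdo1 excess for complex. Kb, ΔHb, n from one-site fit; Mg isotherms by ternary coupled-equilibria model.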

[1] = Effect of Mg^2+, Efl1 R1086Q − Sdo1, 25 °C
[2] = Effect of Mg^2+, Efl1 R1086Q − Sdo1, 30 °C
[3] = Effect of Mg^2+, Efl1 R1086Q − Sdo1, 35 °C
[4] = Effect of Sdo1, Efl1 R1086Q + Mg^2+, 25 °C
[5] = Effect of Sdo1, Efl1 R1086Q + Mg^2+, 30 °C
[6] = Effect of Sdo1, Efl1 R1086Q + Mg^2+, 35 °C
[7] = Effect of Sdo1, Efl1 R1086Q − Mg^2+, 25 °C
[8] = Effect of Sdo1, Efl1 R1086Q − Mg^2+, 30 °C
[9] = Effect of Sdo1, Efl1 R1086Q − Mg^2+, 35 °C

T1 sequence (P53893 whole entry R1086Q): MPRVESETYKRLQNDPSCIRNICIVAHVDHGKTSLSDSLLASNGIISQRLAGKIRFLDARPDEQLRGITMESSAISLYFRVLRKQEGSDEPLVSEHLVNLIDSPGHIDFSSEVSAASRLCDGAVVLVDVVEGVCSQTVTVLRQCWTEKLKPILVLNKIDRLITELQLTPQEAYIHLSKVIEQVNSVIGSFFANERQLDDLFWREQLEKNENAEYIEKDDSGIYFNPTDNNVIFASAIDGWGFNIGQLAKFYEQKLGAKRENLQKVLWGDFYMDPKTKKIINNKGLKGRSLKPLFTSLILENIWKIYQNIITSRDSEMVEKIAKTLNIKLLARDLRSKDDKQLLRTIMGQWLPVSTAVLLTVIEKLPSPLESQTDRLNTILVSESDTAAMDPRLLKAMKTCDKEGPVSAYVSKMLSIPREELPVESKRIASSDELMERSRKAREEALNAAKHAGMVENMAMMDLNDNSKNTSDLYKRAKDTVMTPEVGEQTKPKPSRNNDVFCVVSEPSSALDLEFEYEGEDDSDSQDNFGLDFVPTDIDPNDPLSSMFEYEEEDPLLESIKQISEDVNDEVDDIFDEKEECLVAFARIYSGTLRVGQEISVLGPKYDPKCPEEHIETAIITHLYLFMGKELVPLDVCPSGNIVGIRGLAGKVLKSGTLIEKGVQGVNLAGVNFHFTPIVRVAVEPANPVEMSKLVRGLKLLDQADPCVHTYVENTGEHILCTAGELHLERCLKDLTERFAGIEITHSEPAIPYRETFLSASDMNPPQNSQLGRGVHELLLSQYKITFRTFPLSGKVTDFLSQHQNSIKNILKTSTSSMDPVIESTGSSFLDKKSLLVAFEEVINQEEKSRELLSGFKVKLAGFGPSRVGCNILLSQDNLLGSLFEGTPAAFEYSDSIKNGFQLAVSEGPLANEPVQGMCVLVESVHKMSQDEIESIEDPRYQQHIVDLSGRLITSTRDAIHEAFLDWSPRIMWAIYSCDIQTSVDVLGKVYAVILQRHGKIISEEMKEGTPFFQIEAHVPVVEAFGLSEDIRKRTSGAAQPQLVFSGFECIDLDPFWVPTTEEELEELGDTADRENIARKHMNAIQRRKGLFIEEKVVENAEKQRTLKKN

Nc1nc2c(ncn2[C@@H]2O[C@H](COP(=O)(O)OP(=O)(O)O)[C@@H](O)[C@H]2O)c(=O)[nH]1 [GDP]
increase in binding enthalpy as temperature increased (25 °C to 35 °C): ~ 6 kcal mol^−1 | Nconfres (number of residues changing conformation, absolute value) (+Mg^2+, 30 °C): 21 | Nconfrotb (number of routable bonds changing conformation, absolute value) (+Mg^2+, 30 °C): 30 | ΔCpconf (+Mg^2+, 30 °C): −222 cal mol^−1 K^−1 | ΔSb (+Mg^2+, 30 °C): 7 cal mol^−1 K^−1 | ΔSconf (+Mg^2+, 30 °C): −49 cal mol^−1 K^−1 | ΔSsolv (+Mg^2+, 30 °C): 65 cal mol^−1 K^−1 | −ΔASAconf (+Mg^2+, 30 °C): 996 Å^2 | -TΔs [1]: -2.3 kcal/mol | Δg [1]: 1.3 kcal/mol | Δh [1]: 3.5 kcal/mol | κ (heterotropic cooperativity) [1]: 0.1 | -TΔs [2]: -2.4 kcal/mol | Δg [2]: 1.2 kcal/mol | Δh [2]: 3.6 kcal/mol | κ (heterotropic cooperativity) [2]: 0.1 | -TΔs [3]: -2.1 kcal/mol | Δg [3]: 1.2 kcal/mol | Δh [3]: 3.3 kcal/mol | κ (heterotropic cooperativity) [3]: 0.2 | -TΔs [4]: -1.6 kcal/mol | Δg [4]: -0.6 kcal/mol | Δh [4]: 1.0 kcal/mol | κ (heterotropic cooperativity) [4]: 2.7 | -TΔs [5]: -1.1 kcal/mol | Δg [5]: -0.8 kcal/mol | Δh [5]: 0.3 kcal/mol | κ (heterotropic cooperativity) [5]: 3.6 | -TΔs [6]: -1.4 kcal/mol | Δg [6]: -0.9 kcal/mol | Δh [6]: 0.5 kcal/mol | κ (heterotropic cooperativity) [6]: 4.6 | -TΔs [7]: -3.1 kcal/mol | Δg [7]: 1.06 kcal/mol | Δh [7]: 4.2 kcal/mol | κ (heterotropic cooperativity) [7]: 0.2 | -TΔs [8]: -1.2 kcal/mol | Δg [8]: 1.2 kcal/mol | Δh [8]: 2.3 kcal/mol | κ (heterotropic cooperativity) [8]: 0.1 | Δg [9]: 1.3 kcal/mol | Δh [9]: 1.2 kcal/mol | κ (heterotropic cooperativity) [9]: 0.1 | Kd (+Mg^2+, 25 °C): 24 ± 3 µM | Kd (+Mg^2+, 30 °C): 28 ± 6 µM | Kd (+Mg^2+, 35 °C): 29 ± 8 µM | Kd (−Mg^2+, 25 °C): 3 ± 0.4 µM | Kd (−Mg^2+, 30 °C): 4 ± 0.6 µM | Kd (−Mg^2+, 35 °C): 4 ± 0.6 µM | -TΔSb (+Mg^2+, 25 °C): -3.19 kcal/mol | ΔGb (+Mg^2+, 25 °C): -6.29 kcal/mol | ΔHb (+Mg^2+, 25 °C): -3.1 ± 0.1 kcal/mol | -TΔSb (+Mg^2+, 30 °C): -2.20 kcal/mol | ΔGb (+Mg^2+, 30 °C): -6.30 kcal/mol | ΔHb (+Mg^2+, 30 °C): -4.1 ± 0.6 kcal/mol | -TΔSb (+Mg^2+, 35 °C): -0.59 kcal/mol | ΔGb (+Mg^2+, 35 °C): -6.39 kcal/mol | ΔHb (+Mg^2+, 35 °C): -5.8 ± 0.2 kcal/mol | ΔCpb (+Mg^2+): −270 ± 40 cal mol^−1 K^−1 and −270 cal mol^−1 K^−1 | -TΔSb (−Mg^2+, 25 °C): -0.94 kcal/mol | ΔGb (−Mg^2+, 25 °C): -7.54 kcal/mol | ΔHb (−Mg^2+, 25 °C): -6.6 ± 0.2 kcal/mol | -TΔSb (−Mg^2+, 30 °C): 0.22 kcal/mol | ΔGb (−Mg^2+, 30 °C): -7.47 kcal/mol | ΔHb (−Mg^2+, 30 °C): -7.7 ± 0.3 kcal/mol | -TΔSb (−Mg^2+, 35 °C): 1.55 kcal/mol | ΔGb (−Mg^2+, 35 °C): -7.55 kcal/mol | ΔHb (−Mg^2+, 35 °C): -9.1 ± 0.3 kcal/mol | ΔCpb (−Mg^2+): −250 cal mol^−1 K^−1 and −250 ± 17 cal mol^−1 K^−1 | surface buried by the conformational change (refers to Table 3, 30 °C): ~ 1000 Å | Nconfres (number of residues changing conformation, absolute value) (−Mg^2+, 30 °C): 21 | ΔCpconf (−Mg^2+, 30 °C): −220 cal mol^−1 K^−1 | ΔSb (−Mg^2+, 30 °C): −1 cal mol^−1 K^−1 | ΔSconf (−Mg^2+, 30 °C): −53 cal mol^−1 K^−1 | ΔSsolv (−Mg^2+, 30 °C): 60 cal mol^−1 K^−1 | −ΔASAconf (−Mg^2+, 30 °C): 987 Å^2
